Converted amounts (≈) assume the structure as drawn.
conditions: buffer; pH 7.4; 200.0 µM

Compound | solubility kinetic [µg/mL]
N#Cc1ccc(C(=O)OCC(=O)N2CCOCC2)cc1 | > 41.1
Cc1ccc(S(N)(=O)=O)cc1NC(=O)c1ccc2c3c(cccc13)CC2 | 3.1 (≈ 8.46 µM)
CN1CCCC(OC(=O)c2cc(F)c(F)c(F)c2F)C1.Cl (centres undefined) | 45.4
OCc1nc2ccc(Cl)cc2[nH]1 | > 27.4
C#CCSc1nc2sc3c(c2c(=O)n1C)CCC3 | < 0.3
CCN(C(=O)C(=O)c1c[nH]c2ccccc12)c1ccccc1 | > 43.9
O=C(Nc1ccc(F)c(Cl)c1)C1CC2CCC1C2 (centres undefined) | 2.8 (≈ 10.5 µM)
Cc1ccc(C(=O)NCCONC(=O)c2ccc(C)cc2)cc1 | 45.6 (≈ 146 µM)
O=C(NCc1ccccn1)Nc1ccccc1 | > 34.1
O=C(NCCc1csc(-c2cccc(F)c2)n1)c1ccco1 | > 47.5
O=C(c1ccc([N+](=O)[O-])cc1)N1CCN(C(=O)c2cccnc2)CC1 | > 51.1
COc1ccc(/C=C/C(=O)NC(=S)N2CCSCC2)cc1 | 11.1 (≈ 34.4 µM)
COc1ccccc1NS(=O)(=O)c1ccc(C(=O)N2CCN(c3ccccn3)CC2)cc1 | 53.9 (≈ 119 µM)
COCCn1c(C)cc(C(=O)COC(=O)c2cccnc2SC)c1C | 5.2 (≈ 14.3 µM)
CC1CC(C)(C)NC(=S)N1CCC(=O)NCc1ccc(F)cc1 (centres undefined) | > 50.6
O=[N+]([O-])c1cccnc1SCc1ccccc1 | 0.3 (≈ 1.22 µM)
COc1ccccc1CNc1ccc(N2CCCCC2)cc1 | 30 (≈ 101 µM)
Fc1cc(Cl)ccc1NC(=S)NCCN1CCOCC1 | > 47.7
NC(=O)c1ccc(CSc2nc3ccccc3s2)cc1 | 1.4 (≈ 4.66 µM)
CCc1ccc(N=C2NC(=O)CS2)cc1 | 32.3 (≈ 147 µM)
O=[N+]([O-])c1ccc(S(=O)(=O)NCCCc2ccccc2)cc1 | 28 (≈ 87.4 µM)
Cc1ccc(S(=O)(=O)NCC2(c3ccccc3)CCOCC2)cc1 | < 0.7
CC1CCCC(NC(=O)CSc2cccc[n+]2[O-])C1C (centres undefined) | > 44.2

Compound | solubility kinetic [µg/mL]
O=C(COC(=O)/C=C/c1ccccc1Cl)NCC1CCCO1 (centres undefined) | 31.9 (≈ 98.5 µM)
COc1cc2nc(C(C)(C)C)oc(=O)c2cc1OC | > 39.5
Cc1ccsc1C(=O)NCc1ccc(Cl)cc1 | 1.8 (≈ 6.77 µM)
O=C(NCC1CCCO1)c1ccc[nH]1 (centres undefined) | > 29.1
CCN(CC)C(=S)SC1=CCS(=O)(=O)C1 | 26.8 (≈ 101 µM)
C[C@H](C(=O)NCc1ccccc1)C(=O)c1ccccc1 | > 40.1
CCOC(=O)C1CCCN(CCC(=O)Nc2ccccc2C)C1.Cl (centres undefined) | > 53.2
Cc1c(C)[n+](=O)c2c(n1[O-])C(Br)CCC2Br (centres undefined) | > 52.8
COc1ccc2c(c1)[nH]c1c(N3CCSCC3)ncnc12 | 11.5 (≈ 38.3 µM)
O=C(CNC(=O)c1ccco1)N/N=C/c1ccc(C(=O)O)cc1 | > 47.3
Cc1[nH]c2ccccc2c1C(=O)COc1ccccc1F | 1.6 (≈ 5.65 µM)
Cc1ccc(NC(=O)CC2SCCNC2=O)cc1[N+](=O)[O-] (centres undefined) | 36.2 (≈ 117 µM)
Cc1cc2c([nH]c3ccccc32)c(C)[nH+]1.[Cl-] | 26.2
Cc1cc(C)c2nc(NCc3ccccc3O)sc2c1 | < 0.3
O=C(Nc1cccc2ncccc12)c1ccco1 | 30.5 (≈ 128 µM)
C=CCNC(=O)COc1c(C)ccc(C)c1C | > 35
CCOc1ccc(Cn2cc(F)c(=O)[nH]c2=O)cc1 | > 39.6
CC1C(=O)N2CCCc3cc(NS(=O)(=O)c4ccc(F)cc4)cc1c32 (centres undefined) | > 54.1
CC(=O)Nc1ccc(NC(=O)COC(=O)c2cnccn2)cc1 | > 47.1
C=CCn1c(-c2ccc(Cl)cc2)cnc1SC(C)C(=O)NC(N)=O (centres undefined) | 14.2 (≈ 38.9 µM)
Cc1nc(NC(=O)COC(=O)C2CC3CCCC(C2)C3=O)c(Cl)cc1Cl (centres undefined) | > 59.9
O=C(O)c1cccc(NC(=S)NC(=O)c2cncc(Br)c2)c1 | > 57
Cn1c(-c2ccc(Cl)nc2)nc2cc(Cl)ccc21 | 6.6 (≈ 23.7 µM)

Compound | solubility kinetic [µg/mL]
NC(=O)N1c2ccccc2C=Cc2ccccc21 | > 35.4
COc1ccccc1OCCCCN1CCCCC1 | 36.1 (≈ 137 µM)
O=[N+]([O-])c1ccccc1S(=O)(=O)NC1CCCCCCC1 | 20.1 (≈ 64.3 µM)
CCc1cc2c(=O)oc(-c3ccc(F)cc3)nc2s1 | < 0.6
O=C(/C=C/c1ccccc1)NC(=S)Nc1ccccc1 | < 0.3
CCC1(CC)Nc2ccccc2C(=O)N1c1ccc(OC)cc1 | 16.5 (≈ 53.2 µM)
CCCCNC(=O)c1cc(S(=O)(=O)N2CCCCC2)oc1C | 24 (≈ 73.1 µM)
O=C(Nc1ccc(F)cc1)c1cncs1 | > 33.3
CCc1ccc(NC(=O)CCc2nc3ccccc3[nH]2)cc1 | 0.7 (≈ 2.39 µM)
O=C(NCc1cccnc1)Nc1cccc(Cl)c1Cl | 27.7 (≈ 93.5 µM)
O=C(c1cc2ccccc2o1)N1CCN(c2ccccn2)CC1 | 11.4 (≈ 37.1 µM)
O=C(NC(c1ccccc1)c1ccccn1)c1cccc([N+](=O)[O-])c1 (centres undefined) | 38.3 (≈ 115 µM)
CC1(C)Cc2cccc(OCC(=O)NCc3ccccc3F)c2O1 | > 49.4
Cn1c(C2CCCCC2)nc2cc(N)ccc21 | > 34.4
Cc1nccn1CC(O)COc1ccc(Cl)cc1Cl (centres undefined) | > 45.2
COc1ccccc1NC(=O)NCCN1CCCCC1 | > 41.6
Cc1ccnc(NCc2ccc(Br)cc2)c1 | 2.3 (≈ 8.3 µM)
Cc1cc(SCC(=O)c2cccc([N+](=O)[O-])c2)nc(=O)[nH]1 | 24.3 (≈ 79.6 µM)
Cc1ccc(C)c(OCCCC(=O)NC2CCCCC2)c1 | 3 (≈ 10.4 µM)
CC(C)C(=O)Nc1ccc(N2CCCC2)c(Cl)c1 | 10.4 (≈ 39 µM)
C=CCN1C(=O)c2ccccc2NC1c1cc(Br)cs1 (centres undefined) | 41.1 (≈ 118 µM)
CCCCN(C(=O)C1CCCC1)C1CCS(=O)(=O)C1 (centres undefined) | > 43.1
Cc1cccc(NC(=O)Nc2cccc3ccccc23)c1 | < 0.3

Compound | solubility kinetic [µg/mL]
COc1cccc(-c2noc(CCC(=O)NCC3CCCO3)n2)c1 (centres undefined) | > 49.7
CC(C)(C)c1csc(NC(=O)C2=COCCO2)n1 | 40.2 (≈ 150 µM)
O=C(COC(=O)c1cccnc1Cl)NC(=O)c1ccc(OC(F)F)cc1 | 10.1 (≈ 26.3 µM)
COc1ccc(C2(CNC(=O)c3ccccc3)CCOCC2)cc1 | > 48.8
Cc1ccc(N=C(N)N=C(N)N)cc1 | > 28.7
O=C(O)c1c(NC(=O)N2CCCC2)sc2c1CCCC2 | > 44.2
CC(C)(C)NC(=O)NC(=O)COC(=O)CNC(=O)C1CCCCC1 | 40.9 (≈ 120 µM)
Cc1cc(C)c(S(=O)(=O)NC2CC(C)(C)NC(C)(C)C2)cc1C | 33.5 (≈ 99 µM)
Cc1cc(NC(=O)CN(C)CC(=O)Nc2ccc(Cl)cc2)no1 | > 50.5
CN(C)c1cc(-c2ccc(Cl)cc2Cl)oc(=O)c1Cl | 3.3 (≈ 10.4 µM)
CCN(CC)C(=O)c1cccc(NC(=O)C2CCN(C(=O)c3cccs3)CC2)c1 | > 62
O=C(NC(=S)Nc1ccccc1Br)C1CC1 | 41.7 (≈ 139 µM)
COc1ccc(C=O)cc1CSc1ncccc1C(=O)O | > 45.5
COc1ccc(NC(=O)CSc2nncn2C)cc1 | > 41.7
COc1cc(OC)cc(C(=O)Nc2cccc3nc(C)ccc23)c1 | 2.9 (≈ 9 µM)
CCOC(=O)Cc1csc(NC(=O)c2ccc(Cl)s2)n1 | 13.1 (≈ 39.6 µM)
N#Cc1ccc(C(=O)Nc2cccc(NC(=O)c3ccco3)c2)c(F)c1 | 2 (≈ 5.73 µM)
Cc1ccc(NC(=O)c2ccc(S(=O)(=O)N3CCOCC3)cc2)c(C)c1 | 5.2 (≈ 13.9 µM)
COc1ccccc1OCCC(=O)OCC(=O)Nc1ccc2c(c1)OCO2 | 16.3 (≈ 43.7 µM)
CC(=O)Nc1ccc(S(=O)(=O)N2CCSC2)cc1 | 29.8 (≈ 104 µM)

Source: PubChem BioAssay AID1996
